Here are results for 7 molecules from PubChem BioAssay (NCI).

Some test systems named below: NCI/ADR-RES ovarian; OVCAR-5 ovarian; SK-MEL-2 melanoma; ACHN renal; LOX IMVI melanoma; TK-10 renal; RPMI-8226 leukemia; OVCAR-8 ovarian; SK-MEL-28 melanoma; MOLT-4 leukemia; UACC-257 melanoma; DU-145 prostate; HCT-15 colon; U251 CNS; MDA-MB-231 breast; MALME-3M melanoma; MDA-N; HCC-2998 colon; A549 NSCLC; SF-268 CNS.
Holding throughout (assay): DTP human tumour cell line panel, 48 h

The structures appear in SMILES notation.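 How tested: cells in 96-well plates exposed to compound for 48 hours at five concentrations. TGI: concentration producing complete growth inhibition.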

In the case of `O=C1CCC2(CC1CCS(=O)c1ccccc1)OCCO2` (centres undefined), the TGI with NCI/ADR-RES ovarian, in the test on OVCAR-5 ovarian, in the test on SK-MEL-2 melanoma, in the test with ACHN renal, with LOX IMVI melanoma and with TK-10 renal was above 100 µM in each case. Also, the concentration for total growth inhibition (TGI) in the test on RPMI-8226 leukemia, with OVCAR-8 ovarian, in the test on SK-MEL-28 melanoma, with MOLT-4 leukemia, in the test with UACC-257 melanoma and in the test on DU-145 prostate was above 100 µM throughout. Also, the TGI in the test with HCT-15 colon, with U251 CNS, in the test with MDA-MB-231 breast, in the test with MALME-3M melanoma, in the test with MDA-N and in the test with HCC-2998 colon was above 100 µM throughout. The total growth inhibition concentration (TGI) in the test on A549 NSCLC and in the test with SF-268 CNS was above 100 µM in each case.

Consider `Cc1nc(-n2nc(-c3ccccc3)cc2-c2ccccc2)sc1C(=O)/C=C/c1ccc([N+](=O)[O-])cc1`, for which the TGI with NCI/ADR-RES ovarian is above 100 µM; in the test on OVCAR-5 ovarian it was above 100 µM; with SK-MEL-2 melanoma, above 100 µM; with ACHN renal it was above 52 µM; with LOX IMVI melanoma, 52.5 µM; in the test on TK-10 renal it was above 66.8 µM. The TGI in the test with RPMI-8226 leukemia was 23.5 µM; with OVCAR-8 ovarian it was above 31.6 µM; in the test with SK-MEL-28 melanoma, above 100 µM; with MOLT-4 leukemia, 51.5 µM; with UACC-257 melanoma it was above 71.7 µM; with DU-145 prostate, above 100 µM. Further, the TGI with HCT-15 colon was above 61.9 µM; in the test with U251 CNS, above 47.6 µM; in the test on MDA-MB-231 breast it was above 100 µM; in the test on MALME-3M melanoma, above 100 µM; in the test with MDA-N it was 59.8 µM; in the test on HCC-2998 colon, 38.1 µM. The TGI in the test on A549 NSCLC was above 100 µM; in the test with SF-268 CNS, above 87.6 µM.

On to `CCOC(=O)[C@@]1(C(C)=O)CC(C)=C(C)C[S@]1=O`, for which the TGI in the test on NCI/ADR-RES ovarian, with OVCAR-5 ovarian, with SK-MEL-2 melanoma, with ACHN renal, in the test with LOX IMVI melanoma and in the test with TK-10 renal was above 100 µM in each case. In addition, the TGI in the test on RPMI-8226 leukemia, with OVCAR-8 ovarian, in the test on SK-MEL-28 melanoma, in the test on MOLT-4 leukemia, in the test with UACC-257 melanoma and with DU-145 prostate was above 100 µM each time. Further, the total growth inhibition concentration (TGI) with HCT-15 colon, in the test on U251 CNS, with MDA-MB-231 breast, with MALME-3M melanoma, in the test with MDA-N and in the test with HCC-2998 colon was above 100 µM throughout. Moreover, the TGI in the test with A549 NSCLC and in the test with SF-268 CNS was above 100 µM in each case.

In the case of `Nc1ncnc2c1ncn2[C@@H]1O[C@H](COP(=O)(O)OP(=O)(O)OC[C@H]2O[C@@H](OCCCO)[C@H](O)[C@@H]2O)[C@@H](O)[C@H]1O`, the TGI in the test with NCI/ADR-RES ovarian, in the test on OVCAR-5 ovarian, with SK-MEL-2 melanoma, in the test with ACHN renal, in the test with LOX IMVI melanoma and in the test with TK-10 renal was above 100 µM each time. The TGI with RPMI-8226 leukemia, in the test with OVCAR-8 ovarian, in the test on SK-MEL-28 melanoma, in the test on MOLT-4 leukemia, in the test with UACC-257 melanoma and with DU-145 prostate was above 100 µM throughout. The TGI in the test on HCT-15 colon, with U251 CNS, in the test on MDA-MB-231 breast, with MALME-3M melanoma, in the test on MDA-N and in the test with HCC-2998 colon was above 100 µM in each case. Further, the TGI with A549 NSCLC and with SF-268 CNS was above 100 µM in each case.

Turning to `CSc1nc(-c2ccccc2)nc(C(C#N)C#N)n1`, the concentration for total growth inhibition (TGI) in the test on NCI/ADR-RES ovarian, with OVCAR-5 ovarian, with SK-MEL-2 melanoma, in the test on ACHN renal, with LOX IMVI melanoma and with TK-10 renal was above 100 µM in each case. Also, the TGI with RPMI-8226 leukemia, in the test on OVCAR-8 ovarian, in the test with SK-MEL-28 melanoma, with MOLT-4 leukemia, in the test on UACC-257 melanoma and with DU-145 prostate was above 100 µM in each case. The TGI in the test on HCT-15 colon, in the test with U251 CNS, in the test with MDA-MB-231 breast, with MALME-3M melanoma, in the test with MDA-N and in the test on HCC-2998 colon was above 100 µM in each case. Moreover, the TGI with A549 NSCLC and with SF-268 CNS was above 100 µM in each case.

As for `CCO[C@H]1O[C@@H]2OC3(C)CCC4[C@H](C)CCC([C@H]1C)[C@]42OO3` (some centres undefined), the total growth inhibition concentration (TGI) is above 100 µM with NCI/ADR-RES ovarian; above 68.6 µM with OVCAR-5 ovarian; above 100 µM with SK-MEL-2 melanoma; above 100 µM in the test on ACHN renal; above 100 µM with LOX IMVI melanoma; above 100 µM in the test on TK-10 renal. The TGI with RPMI-8226 leukemia is above 100 µM; with OVCAR-8 ovarian, 51.7 µM; in the test on SK-MEL-28 melanoma it was above 100 µM; in the test with MOLT-4 leukemia, above 100 µM; with DU-145 prostate, above 100 µM; in the test on HCT-15 colon it was above 100 µM. Further, the TGI with U251 CNS, in the test on MDA-MB-231 breast, in the test on MALME-3M melanoma, in the test with MDA-N, in the test with HCC-2998 colon and in the test with A549 NSCLC was above 100 µM in each case. In the test on SF-268 CNS, this molecule displayed a TGI above 100 µM.

As to `Cc1cccc2c(NCCN(C)C)c3cccc(C(=O)NCCN(C)C)c3nc12`, the TGI in the test on NCI/ADR-RES ovarian stood at 11.6 µM; in the test on OVCAR-5 ovarian, 14.4 µM; in the test on SK-MEL-2 melanoma, 1.13 µM; in the test on ACHN renal, 4.33 µM; with LOX IMVI melanoma, 1.76 µM; in the test on TK-10 renal it was 8.94 µM. For the same molecule, the TGI was determined as 0.21 µM in the test with RPMI-8226 leukemia; 10.2 µM with OVCAR-8 ovarian; 8.37 µM in the test on SK-MEL-28 melanoma; 0.102 µM with MOLT-4 leukemia; 2.47 µM with UACC-257 melanoma; 3.61 µM in the test with DU-145 prostate. Also, the concentration for total growth inhibition (TGI) was 13.9 µM with HCT-15 colon; 3.82 µM in the test on U251 CNS; 0.728 µM in the test on MDA-MB-231 breast; 1.62 µM in the test on MALME-3M melanoma; 0.9 µM in the test with MDA-N; 1.33 µM in the test with HCC-2998 colon. Also, the total growth inhibition concentration (TGI) worked out at 29.2 µM with A549 NSCLC and 2.85 µM in the test with SF-268 CNS.
